One compound from patent publication US20240229098A1, “BIOLUMINOGENIC ASSAY FOR DRUG-RESISTANCE BACTERIA DETECTION” (priority 2021, published 2024) can be followed below.

The target in test [1] is TEM-1 (Escherichia coli, UniProt P62593). The test can be described thus: Fluorescence turn-on of caged luciferin probes with recombinant TEM-1 bla. The format is biochemical. Also noted: made in house. As to the method: D-Bluco was evaluated as to whether it could be processed by β-lactamase to release luciferin with one of the most prevalent Ambler class A β-lactamases, TEM-1.
Both probes were evaluated to with TEM-1 bla, one of the most abundant β-Lactamases for initial testing. The fluorescent signal of D-Bluco and O-Bluco incubated with 100 nM TEM-1 bla was examined with a microplate reader over a period of 40 minutes.
General information: All chemicals were purchased from commercial sources and used without further purification. […] QuantiLum Recombinant luciferase (catalog number E1701) was purchased from Promega (Madison, WI). Reaction progress was monitored by analytical thin layer chromatography (TLC) with 0.25 mm silica gel 60F plates and visualized with fluorescent indicator (254 nm). Flash column chromatography was conducted using silica gel (SiliaFlash for flash column, 40-63 μm, 60 Å). The ^1H and ^13C NMR spectra were acquired on a Varian 500 MHz or 600 MHz magnetic resonance spectrometer. Data for ^1H NMR spectra are reported as follows: chemical shifts are reported as δ in units of parts per million (ppm) relative to chloroform-d (δ 7.26, s); multiplicities are reported as follows: s (singlet), d (doublet), t (triplet), q (quartet), dd (doublet of doublets), m (multiplet), or br (broadened); coupling constants are reported as a J value in Hertz (Hz); and the number of protons (n) for a given resonance is indicated nH and based on the spectral integration values. High resolution mass spectra were obtained on a Thermo Exactive Orbitrap LC/MS. HPLC was performed on a Dionex HPLC System (Dionex Corporation) equipped with a GP50 gradient pump and an inline diode array UV-Vis detector. A reversed-phase C18 (Phenomenax, 5 μm, 10×250 mm or Dionex, 5 μm, 4.6×250 mm) column was used with a MeCN (B)/H2O (A) gradient mobile phase containing 0.1% trifluoroacetic acid at a flow of 1 or 3 mL/min for the analysis. Fluorescence Spectra and kinetic experiments were collected by a SpectraMax iD3 multimode microplate reader (Molecular Device, San Jose, CA).

Test [2] deals with E. cloacae/AmpC. The test can be described thus: RAPID BLI test, clinic isolate spiked into synthetic urine, E. cloacae/AmpC. The following applies: E. cloacae/AmpC in synthetic urine, D-Bluco 10 μM.
Experimental: The modified rapid BLI protocol is applied. The signal of D-Bluco in PBS was subtracted before plotting. The working concentration of D-Bluco was 10 μM. All the studies were duplicated at room temperature in PBS (pH=7.4). Statistical significance was calculated using the unpaired two-tailed Student's t test (** p<0.0021, *** p<0.0002, **** p<0.0001, for comparison with 10^5 cfu/mL E. coli) (** p<0.0021, **** p<0.0001, ns: not significant). RLU indicates relative light units. Dotted line represents 3SD of the negative control.
Bacteria was mixed with 0.5% CHAPS lysis buffer for 15 min, and then incubated with D-Bluco at room temperature for another 15 min. The resulted mixture was combined with assay buffer which contains MgCl2, CoA, ATP, and luciferase for immediate bioluminescent reading.
Clinic isolates representing different classes (class A: Enterobacter cloacae/IMI, E. coli/TEM, K. pneumoniae/KPC; class B: E. coli/NDM, and class C: E. cloacae/AmpC) were spiked into synthetic urine samples.
Test [3] concerns E. coli/TEM lysate. The test is described as follows: Bioluminescence with bacterial lysate compared to intact bacteria, E. coli/TEM. It counts as cell-based, Escherichia coli. The following applies: CHAPS lysis.
Test [4] has as its system KPC-3, BlaC, TEM-1, IMP-1, AmpC, OXA-48. The test is described as follows: Bioluminescence with panel of recombinant β-lactamases of clinical relevance. The format is biochemical. The protocol: FIGS. 9A and 9B illustrates bioluminescent studies of D-Bluco and O-Bluco treating with various β-lactamases. 10 μM of Bluco, D-Bluco and O-Bluco incubated with 20 nM TEM-1 for 15 min in PBS at r.t. The bioluminescent signals for each compound was evaluated with or without the addition of TEM-1 by a luminator. […] The relative bioluminescent was calculated by removing background signal in PBS.
Having confirmed the quenching ability of dabcyl to lower D-Bluco bioluminescent background emission, the activity of D-Bluco towards a variety of β-lactamases that are of clinical relevance in addition to TEM-1, including KPC-3, BlaC (Class A), AmpC (Class C), and OXA-48 (Class D) was then assessed. These enzymes were recombinantly expressed and purified. The bioluminescent signal was measured with an IVIS optical imaging system after treating D-Bluco with each enzyme for 2 hours at room temperature.
D-Bluco and O-Bluco were evaluated with various β-lactamase that of clinical relevance (FIG. 9B and 9C), including KPC-3, BlaC, TEM-1 (Class A), IMP-1 (Class B), AmpC (Class C), and OXA-48 (Class D). These enzymes were recombinantly expressed, purified as previously described^25. The bioluminescent signal was measured after incubating O-Bluco or D-Bluco with each enzyme at different concentrations for 2 hr at r.t. […] This compares favorably to previously reported fluorescent cephalosporin probe with a 1000-fold sensitivity improvement.^26
The caged luciferin probes were incubated with different concentrations of TEM-1 β-lactamase or IMP-1 carbapenemase (0.001-0.1 fmol) in PBS (pH=7.4) for 2 hr at 25° C. Then a mixture of luciferase (200 nM), ATP (2 mM), and MgCl2 (4 mM) was added, and bioluminescent signals were detected with a SpectraMax microplate reader or a luminator.

Chain of TEM-1 (P62593 24-286 limits assumed): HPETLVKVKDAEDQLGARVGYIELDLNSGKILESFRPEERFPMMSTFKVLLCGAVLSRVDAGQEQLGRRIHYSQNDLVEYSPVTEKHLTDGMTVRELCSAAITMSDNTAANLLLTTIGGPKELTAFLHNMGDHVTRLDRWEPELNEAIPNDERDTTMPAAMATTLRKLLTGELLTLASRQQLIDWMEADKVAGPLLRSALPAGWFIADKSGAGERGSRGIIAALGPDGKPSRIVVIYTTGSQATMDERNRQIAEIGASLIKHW

`CN(C)c1ccc(/N=N/c2ccc(C(=O)NCCCCCC(=O)NC3C(=O)N4C(C(=O)O)=C(COc5ccc6nc(C7=N[C@@H](C(=O)O)CS7)sc6c5)C[S+]([O-])C34)cc2)cc1` (stereo partly drawn) [D-Bluco, 3-(((2-((S)-4-carboxy-4,5-dihydrothiazol-2-yl)benzo[d]thiazol-6-yl)oxy)methyl)-7-(6-(4-((E)-(4-(dimethylamino)phenyl)diazenyl)benzamido)hexanamido)-8-oxo-5-thia-1-azabicyclo[4.2.0]oct-2-ene-2-carboxylic acid 5-oxide]: in test [1] (1 μM probe, TEM-1 100 nM, 40 min, PBS pH 7.4, r.t., excitation 330 nm, emission 530 nm), the “fold increase in fluorescence emission in the presence of TEM-1” value is listed as 37.6 fold. The “time of rapid fluorescence intensity increase before plateau” value in test [1] (TEM-1 bla 100 nM, monitored over 40 minutes) is at most 10 min. Also, in test [1] (without TEM-1, excitation 330 nm, emission 530 nm), the “fluorescence emission in the absence of TEM-1” value is listed as “little emission”. Besides, the “concentration detected directly without culture” value in test [2] is 10^2 cfu/mL. Also, in test [3], the “signal enhancement with lysate compared to intact bacteria” value came to 52 fold. Further, the “lowest detectable β-lactamase activity” value in test [4] is on record as 10-18 moles. Further, in test [4] (KPC-3, BlaC, TEM-1, IMP-1, AmpC, OXA-48, 2 hr at r.t.), the “detection limits for the panel of enzymes” value is “within the femtomole range”. Further, the “bioluminescence triggered by β-lactamases TEM-1, KPC-3, BlaC, AmpC, OXA-48” value in test [4] (each enzyme 2 hours at room temperature, IVIS imaging) is “significant bioluminescence”.
